The source of these data is ChEMBL document CHEMBL6103639, “Structure-Based Development of 3,4-Fused Tricyclic Benzofuran Derivatives as Polyketide Synthase 13 Inhibitors with Negligible hERG Inhibition” (J Med Chem, 2025).

One may read the MIC as the lowest concentration found to suppress growth. A word on the half-life: it is how long it takes for the measured level to halve. What is called Tm is the temperature at the midpoint of the melting transition. One may read the ΔTm as the change in melting temperature against a reference sample. Broadly, the IC50 is the point on the concentration scale where inhibition reaches its midpoint. Lower therefore signals inhibition by little substance.

In data set [1] the test system is Mycobacterium tuberculosis. Description: Antitubercular activity against Mycobacterium tuberculosis H37Rv assessed as reduction in microbial growth by microplate alamar blue assay. Type of data set: functional. For orientation: The colour change of resazurin is a common sign of viable cells or microbes.
Data set [2] is described as follows: Metabolic stability in human liver microsomes assessed as intrinsic clearance at 0.1 uM measured upto 60 mins by LC/MS-MS analysis. It counts as ADME, Microsome. As to conditions: read-out: CLH.
Data set [3] can be described thus: Metabolic stability in human liver microsomes assessed as parent compound remaining at 0.1 uM incubated for 60 mins by LC/MS-MS analysis. Type of data set: ADME, Microsome. As to conditions: read-out: Stability. (Liver microsomes are a subcellular fraction often used to study metabolism.)
The nature of data set [4]: Metabolic stability in human liver microsomes assessed as half life at 0.1 uM measured upto 60 mins by LC/MS-MS analysis. Type of data set: ADME, Microsome.
For data set [5], the target named is Polyketide synthase Pks13 (Mycobacterium tuberculosis (strain ATCC 25618 / H37Rv)) (UniProt I6X8D2). Description: Induction of stabilization of Mycobacterium tuberculosis H37Rv Pks-13 TE domain assessed as melting temperature incubated for 30 mins by NanoDSF assay. For orientation: Differential scanning fluorimetry follows unfolding on heating by fluorescence.

For data set [6] the target is unchanged. Kind of data set: Induction of stabilization of Mycobacterium tuberculosis H37Rv Pks-13 TE domain assessed as change in melting temperature incubated for 30 mins by NanoDSF assay.
In data set [7] the target is Polyketide synthase Pks13 (Mycobacterium tuberculosis (strain ATCC 25618 / H37Rv), UniProt I6X8D2). Description: Inhibition of Mycobacterium tuberculosis H37Rv Pks-13 TE domain using 4-MUH as fluorogenic substrate incubated for 90 mins by fluorescence based analysis.
Data set [8] has as its target Voltage-gated inwardly rectifying potassium channel KCNH2 (Homo sapiens, UniProt Q12809). Description: Inhibition of human ERG expressed in CHO cells incubated for 2.5 mins by Q-patch-clamp electrophysiological analysis. It counts as toxicity, cell-based.
The test system of data set [9] is Mycobacterium tuberculosis. Description: Antitubercular activity against Mycobacterium tuberculosis H37Rv assessed as reduction in microbial growth incubated for 6 days by microplate alamar blue assay. Type of data set: functional. As to conditions: 144 h, time 6 day.

Each structure is given as a SMILES string.

Voltage-gated inwardly rectifying potassium channel KCNH2, sequence (Q12809 whole entry): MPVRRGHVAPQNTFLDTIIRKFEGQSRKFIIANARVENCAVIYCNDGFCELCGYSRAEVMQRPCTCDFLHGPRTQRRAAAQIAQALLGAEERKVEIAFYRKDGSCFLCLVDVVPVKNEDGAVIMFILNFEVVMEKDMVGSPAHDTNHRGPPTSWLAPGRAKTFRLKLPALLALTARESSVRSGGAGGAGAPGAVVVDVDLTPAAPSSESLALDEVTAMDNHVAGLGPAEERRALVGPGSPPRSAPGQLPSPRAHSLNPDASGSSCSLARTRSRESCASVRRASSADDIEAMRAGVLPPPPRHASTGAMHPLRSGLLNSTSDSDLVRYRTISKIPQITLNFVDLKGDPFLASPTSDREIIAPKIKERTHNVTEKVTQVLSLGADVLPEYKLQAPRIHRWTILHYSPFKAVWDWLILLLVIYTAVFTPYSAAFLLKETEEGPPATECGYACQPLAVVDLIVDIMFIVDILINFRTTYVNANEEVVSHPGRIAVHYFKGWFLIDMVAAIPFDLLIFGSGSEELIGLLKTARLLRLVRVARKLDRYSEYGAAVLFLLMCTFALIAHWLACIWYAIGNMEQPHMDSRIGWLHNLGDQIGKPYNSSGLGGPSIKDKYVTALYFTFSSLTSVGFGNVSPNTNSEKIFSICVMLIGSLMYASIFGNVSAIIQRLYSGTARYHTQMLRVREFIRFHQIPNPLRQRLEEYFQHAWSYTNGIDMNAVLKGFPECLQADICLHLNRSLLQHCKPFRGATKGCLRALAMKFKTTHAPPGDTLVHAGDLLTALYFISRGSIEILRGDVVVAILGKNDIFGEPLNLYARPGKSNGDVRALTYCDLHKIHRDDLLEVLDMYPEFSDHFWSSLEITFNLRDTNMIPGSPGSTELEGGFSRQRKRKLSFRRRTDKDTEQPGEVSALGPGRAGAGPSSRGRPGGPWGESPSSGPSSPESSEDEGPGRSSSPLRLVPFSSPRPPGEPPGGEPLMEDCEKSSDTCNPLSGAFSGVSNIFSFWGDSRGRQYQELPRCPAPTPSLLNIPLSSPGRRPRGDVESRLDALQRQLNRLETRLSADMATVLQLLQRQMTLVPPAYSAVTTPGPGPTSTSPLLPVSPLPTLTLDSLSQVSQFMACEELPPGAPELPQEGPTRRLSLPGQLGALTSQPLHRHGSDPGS
Polyketide synthase Pks13 (Mycobacterium tuberculosis (strain ATCC 25618 / H37Rv)), sequence (I6X8D2 whole entry, the tested form may be a part): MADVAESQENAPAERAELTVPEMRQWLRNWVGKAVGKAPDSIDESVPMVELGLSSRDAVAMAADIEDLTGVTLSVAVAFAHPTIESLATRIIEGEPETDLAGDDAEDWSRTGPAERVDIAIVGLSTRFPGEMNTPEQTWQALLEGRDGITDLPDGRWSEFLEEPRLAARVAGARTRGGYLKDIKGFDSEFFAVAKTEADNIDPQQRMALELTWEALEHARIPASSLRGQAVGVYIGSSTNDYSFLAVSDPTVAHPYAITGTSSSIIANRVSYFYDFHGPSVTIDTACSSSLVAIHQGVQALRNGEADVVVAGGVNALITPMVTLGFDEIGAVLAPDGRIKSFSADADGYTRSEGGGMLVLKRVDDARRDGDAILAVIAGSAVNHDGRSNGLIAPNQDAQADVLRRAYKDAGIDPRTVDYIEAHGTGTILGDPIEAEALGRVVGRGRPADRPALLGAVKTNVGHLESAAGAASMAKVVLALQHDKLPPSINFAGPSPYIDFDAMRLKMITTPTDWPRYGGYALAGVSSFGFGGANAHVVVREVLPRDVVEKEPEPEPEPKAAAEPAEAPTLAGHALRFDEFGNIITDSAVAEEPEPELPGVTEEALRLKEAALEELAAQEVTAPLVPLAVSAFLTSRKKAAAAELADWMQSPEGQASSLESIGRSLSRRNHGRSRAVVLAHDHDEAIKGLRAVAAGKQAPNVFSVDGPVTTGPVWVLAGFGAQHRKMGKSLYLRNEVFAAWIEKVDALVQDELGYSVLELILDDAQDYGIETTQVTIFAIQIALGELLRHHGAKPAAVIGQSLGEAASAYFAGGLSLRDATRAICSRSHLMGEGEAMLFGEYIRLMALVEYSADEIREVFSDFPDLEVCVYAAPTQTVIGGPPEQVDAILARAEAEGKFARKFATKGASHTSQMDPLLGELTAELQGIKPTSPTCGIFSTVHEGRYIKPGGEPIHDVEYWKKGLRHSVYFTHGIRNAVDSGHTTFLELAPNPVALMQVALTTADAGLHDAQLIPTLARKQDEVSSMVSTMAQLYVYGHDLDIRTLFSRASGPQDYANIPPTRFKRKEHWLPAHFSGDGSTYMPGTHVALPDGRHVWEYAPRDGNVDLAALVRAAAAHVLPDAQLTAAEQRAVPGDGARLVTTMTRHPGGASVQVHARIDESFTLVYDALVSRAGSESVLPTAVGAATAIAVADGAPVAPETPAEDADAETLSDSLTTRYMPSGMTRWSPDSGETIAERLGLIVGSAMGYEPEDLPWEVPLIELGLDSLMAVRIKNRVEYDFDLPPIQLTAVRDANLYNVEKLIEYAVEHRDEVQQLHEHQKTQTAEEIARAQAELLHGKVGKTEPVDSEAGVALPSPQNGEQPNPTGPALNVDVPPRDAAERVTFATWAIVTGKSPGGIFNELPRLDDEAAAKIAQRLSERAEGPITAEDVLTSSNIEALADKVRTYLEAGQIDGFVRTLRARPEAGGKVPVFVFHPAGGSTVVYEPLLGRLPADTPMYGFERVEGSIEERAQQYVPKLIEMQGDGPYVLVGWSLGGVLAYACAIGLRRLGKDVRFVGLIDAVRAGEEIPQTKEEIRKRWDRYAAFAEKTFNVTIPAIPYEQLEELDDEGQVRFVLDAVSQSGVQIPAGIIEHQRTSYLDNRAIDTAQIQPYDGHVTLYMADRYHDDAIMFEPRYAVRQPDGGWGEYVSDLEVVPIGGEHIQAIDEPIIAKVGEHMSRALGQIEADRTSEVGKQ
Polyketide synthase Pks13, sequence (I6X8D2 whole entry, the tested form may be a part): as above

Consider `CN1CN(CC2CCC2)Cc2c(O)ccc3oc(-c4ccc(F)cc4)c(c23)C1=O`, for which, in data set [1], the MIC was found to be 2 µg/mL.
Turning to `Oc1ccc2c3c(cn2-c2ccc(Br)cc2)CCN(CC2CCC2)Cc13`, the microsomal CLint at 0.1 µM in [2] is 26.9 µL/min/mg. The MIC in data set [1] is 8 µg/mL. Besides, in data set [3], the remaining at 1 h, 0.1 µM was 44.1%. For the same compound, the half-life at 0.1 µM in [4] was 51.5 min.
With `CC1c2c(O)ccc3c2c(cn3-c2ccccc2)CCN1C1CCC1` (stereo unspecified), in data set [1], the MIC stood at 16 µg/mL.
Take `CC1c2c(O)ccc3c2c(cn3-c2ccc(Br)cc2)CCN1C1CCC1` (stereo unspecified): the MIC in data set [1] was determined as 8 µg/mL.
On the same count and under the same terms, the figure for `COc1cccc(-c2oc3ccc(O)c4c3c2C(=O)N(C)CN(CC2CCC2)C4)c1` is 4 µg/mL; for `CN1CN(CCCC2CCCCC2)Cc2c(O)ccc3oc(-c4ccc(O)cc4)c(c23)C1=O` it is more than 64 µg/mL.
In the case of `COc1ccc2oc(-c3ccc(O)cc3)c3c2c1CN(CC1CCC1)CN(C)C3=O`, the MIC in [1] was found to be 64 µg/mL.
In the case of `CN1CN(C2CCCC2)Cc2c(O)ccc3c2c(cn3-c2ccc(Br)cc2)C1=O`, the minimum inhibitory concentration (MIC) in [1] amounted to 1 µg/mL.
Consider `O=C(O)Cc1ccccc1Nc1c(Cl)cccc1Cl` [DICLOFENAC], for which, in data set [2], the microsomal CLint at 0.1 µM came out at 248 µL/min/mg.
Consider `CC(C)CN1Cc2c(O)ccc3oc(-c4ccc(O)cc4)c(c23)C(=O)N(C)C1`, for which, in [1], the MIC is 0.062 µg/mL.
For `CN1CN(CC2CCC2)Cc2c(O)ccc3oc(-c4ccc(O)cc4)c(c23)C1=O`, the Tm in [5] worked out at 65.8 °C. In addition, in data set [6], the ΔTm was found to be 6.8 °C. Moreover, the microsomal CLint at 0.1 µM in data set [2] was 78.2 µL/min/mg. For the same compound, the MIC in data set [1] came to 0.016 µg/mL. In data set [3], the remaining at 1 h, 0.1 µM is 8.2%. Also, the concentration for half-maximal inhibition (IC50) in [7] is 2.1 µM; in data set [8], more than 100 µM. Moreover, the half-life at 0.1 µM in [4] came out at 17.7 min.
As for `CN1CN(CC2CCCC2)Cc2c(O)ccc3c2c(cn3-c2ccc(Br)cc2)C1=O`, in data set [1], the MIC is more than 64 µg/mL.
Take `Oc1ccc2c3c(cn2-c2ccc(Br)cc2)CCN(CC2CC2)Cc13`: in [1], the MIC worked out at 16 µg/mL.
`CN1CN(C2CCCC2)Cc2c(O)ccc3oc(-c4ccc(O)cc4)c(c23)C1=O`: in [5], the Tm worked out at 66 °C. Also, in data set [6], the ΔTm was 7 °C. Also, the microsomal CLint at 0.1 µM in data set [2] worked out at 48 µL/min/mg. Besides, the MIC in data set [1] is 0.125 µg/mL. In [3], the remaining at 1 h, 0.1 µM was 23.3%. For the same compound, the figures for the IC50 in data set [7] and in data set [8] were 5.87 µM and more than 100 µM, respectively. Moreover, the half-life at 0.1 µM in [4] came to 28.9 min.
On to `CN1CN(CC2CC2)Cc2c(O)ccc3c2c(cn3-c2ccc(Br)cc2)C1=O`, for which the minimal inhibitory concentration (MIC) in [1] was 8 µg/mL.
As to `CC1c2c(O)ccc3c2c(cn3-c2ccccc2)CCN1CC1CCC1` (stereo unspecified), the minimum inhibitory concentration (MIC) in data set [1] was determined as 8 µg/mL.
The same measure, in the same setting: the figure for `CC1c2c(O)ccc3c2c(cn3-c2ccc(Br)cc2)C(=O)CN1CC1CC1` (stereo unspecified) is 32 µg/mL.
Turning to `CN1CN(CC2CC2)Cc2c(O)ccc3oc(-c4ccc(O)cc4)c(c23)C1=O`, the MIC in [1] was determined as 0.031 µg/mL. The same compound gave an IC50 in data set [8] of more than 100 µM.
As to `CC(=O)c1c(C)n(-c2ccc(Br)cc2)c2ccc(O)c(CN3CCCCC3)c12`, the MIC in data set [1] is 0.125 µg/mL.
Still for that read-out and setting: the figure for `CN1CN(CC2CCC2)Cc2c(O)ccc3oc(-c4cccc(O)c4)c(c23)C1=O` is 0.125 µg/mL; for `CN1CN(CC2CCC2)Cc2c(O)ccc3oc(-c4ccccc4)c(c23)C1=O` it is 0.5 µg/mL; for `COc1ccc(-c2oc3ccc(O)c4c3c2C(=O)N(C)CN(CC2CCC2)C4)cc1` it is 0.25 µg/mL.
Same read-out and setting: the figure for `CN1CN(C2CCCCC2)Cc2c(O)ccc3oc(-c4ccc(O)cc4)c(c23)C1=O` is 8 µg/mL; for `CC1c2c(O)ccc3c2c(cn3-c2ccc(Br)cc2)C(=O)CN1C1CCC1` (stereo unspecified) it is 64 µg/mL.
For the compound `CCOC(=O)c1c(NC(=O)c2c(F)c(F)c(F)c(F)c2F)sc2c1CCN(CC)C2`, the MIC in data set [9] came out at 0.23 µM.
Regarding `CN1CN(CC2CCCC2)Cc2c(O)ccc3oc(-c4ccc(O)cc4)c(c23)C1=O`, the MIC in data set [1] turned out to be 2 µg/mL.
Take `CN1CN(C2CCC2)Cc2c(O)ccc3c2c(cn3-c2ccc(Br)cc2)C1=O`: in [1], the MIC amounted to 8 µg/mL.
Turning to `CN1CN(C2CCC2)Cc2c(O)ccc3oc(-c4ccc(O)cc4)c(c23)C1=O`, the MIC in [1] stood at 0.125 µg/mL.
In the case of `CNC(=O)c1c(-c2ccc(O)cc2)oc2ccc(O)c(CN3CCCCC3)c12`, in data set [5], the Tm stood at 67.4 °C. Besides, the ΔTm in [6] worked out at 8.4 °C.
Turning to `CC1c2c(O)ccc3c2c(cn3-c2ccc(Br)cc2)CCN1CC1CCC1` (stereo unspecified), in [1], the MIC stood at 8 µg/mL.
Same read-out and setting: the figure for `CN1CN(CCC2CC2)Cc2c(O)ccc3oc(-c4ccc(O)cc4)c(c23)C1=O` is 0.25 µg/mL; for `CC1c2c(O)ccc3c2c(cn3-c2ccc(Br)cc2)CCN1CC1CC1` (stereo unspecified) it is 8 µg/mL.
For the compound `C[C@]12CC[C@H]3[C@@H](CCC4=CC(=O)CC[C@@]43C)[C@@H]1CC[C@@H]2O` [TESTOSTERONE], the remaining at 1 h, 0.1 µM in [3] is 4.1%.
With `O=C1NCN(C2CCCC2)Cc2c(O)ccc3oc(-c4ccc(O)cc4)c1c23`, in [1], the MIC was 0.5 µg/mL.
The same measure, in the same setting: the figure for `CN1CN(CC2CCCCC2)Cc2c(O)ccc3oc(-c4ccc(O)cc4)c(c23)C1=O` is 16 µg/mL; for `Oc1ccc2c3c(cn2-c2ccc(Br)cc2)CCN(C2CCC2)Cc13` it is 16 µg/mL.
For `O=c1oc2cc(O)ccc2c2oc3ccc(O)c(CN4CCCCC4)c3c12`, the midpoint of inhibition in data set [8], the IC50, lay at 0.52 µM.
As to `CC(C)CCN1Cc2c(O)ccc3oc(-c4ccc(O)cc4)c(c23)C(=O)N(C)C1`, the MIC in data set [1] worked out at 0.25 µg/mL.
Still for that read-out and setting: in the case of `CC1c2c(O)ccc3c2c(cn3-c2ccc(Br)cc2)C(=O)CN1CC1CCC1` (stereo unspecified) it was more than 64 µg/mL; in that of `CC1c2c(O)ccc3c2c(cn3-c2ccccc2)CCN1CC1CC1` (stereo unspecified), 16 µg/mL; in that of `CN1CN(CC2CCC2)Cc2c(O)ccc3c2c(cn3-c2ccc(Br)cc2)C1=O`, 8 µg/mL.
The same measure, in the same setting: the figure for `COc1ccc(-c2oc3ccc(OC)c4c3c2C(=O)N(C)CN(CC2CCC2)C4)cc1` is 64 µg/mL.
